The values below come from ChEMBL document CHEMBL5053552, “Design, Synthesis, and Antiviral activity of 1,2,3,4-Tetrahydropyrimidine derivatives acting as novel entry inhibitors to target at "Phe43 cavity" of HIV-1 gp120” (Bioorg Med Chem, 2021).

Activity calls are given as the source filed them. The calls are words filed in the database; no cut-off is given here.

The nature of data set [1]: Cytotoxicity against human SUP-T1 cells assessed as reduction in cell viability measured after 16 hrs by MTT assay. In kind it is cell-based. (Tetrazolium assays rely on reduction of a dye to a coloured formazan, in cell work by metabolically active cells.)
Data set [2] deals with Human immunodeficiency virus 1. The experiment in a line: Antiviral activity against HIV1 931N101 infected in human SupT1 cells assessed as inhibition of viral entry mesaured after 96 hrs by p24- ELISA assay. In kind it is functional, organism-based. To be noted: Human immunodeficiency virus 1, 931N101, SUP-T1, 96 h. (In an ELISA, binding on a coated surface is turned into a signal by an enzyme label.)

The test system of data set [3] is Human immunodeficiency virus 1. The experiment in a line: Antiviral activity against HIV1 931N101 infected in human SupT1 cells assessed as inhibition of viral entry at 2.2 uM mesaured after 96 hrs by p24- ELISA assay relative to control. To be noted: Human immunodeficiency virus 1, 931N101, SUP-T1. Type of data set: functional.
The next data set deals with SUP-T1. The data set is described as follows: Inhibition of HIV1 gp120 interaction with CD4 in human SUP-T1 cells expressing CCR5, CXCR4 assessed as decrease in viral entry by fluorescent microscopic assay. Type of data set: cell-based. To be noted: Human immunodeficiency virus 1.

For `CCOC(=O)C1=C(C)NC(=O)NC1c1ccc(O)cc1` (configuration not stated), the CC50 at 16 h in data set [1] was found to be 132 µM. In addition, the IC50 in data set [2] came out at 6 µM.

`CCOC(=O)C1=C(C)NC(=S)NC1c1ccccc1C` (configuration not stated): in data set [1], the CC50 at 16 h came out at 124 µM. For the same compound, the IC50 in data set [2] amounted to 5.2 µM.

Consider `CCOC(=O)C1=C(C)NC(=S)NC1c1ccc(O)c(OC)c1` (configuration not stated), for which the inhibition at 2.2 µM in data set [3] was found to be 50%. Besides, the CC50 at 16 h in data set [1] is 101 µM. Further, the IC50 in data set [2] amounted to 2.2 µM. The inhibition entry in the data set with SUP-T1 is “Active”.

For `CCOC(=O)C1=C(C)NC(=O)NC1c1cc(Br)ccc1O` (configuration not stated), the 50% cytotoxic concentration (CC50) at 16 h in data set [1] was 138 µM. Moreover, the IC50 in data set [2] was 5.3 µM.

Turning to `CCOC(=O)C1=C(C)NC(=S)NC1c1ccc(O)cc1` (configuration not stated), in data set [1], the CC50 at 16 h came to 88.9 µM. For the same compound, the IC50 in data set [2] was determined as 4 µM.

As to `CCOC(=O)C1=C(C)NC(=S)NC1c1cccc(Cl)c1` (configuration not stated), the CC50 at 16 h in data set [1] was found to be 97.6 µM. In addition, the concentration for half-maximal inhibition (IC50) in data set [2] is 3.5 µM.

Turning to `CCOC(=O)C1=C(C)NC(=S)NC1c1ccc(Br)cc1` (configuration not stated), in data set [1], the CC50 at 16 h came out at 136 µM. For the same compound, in data set [2], the IC50 stood at 4.2 µM.

As for `CCOC(=O)C1=C(C)NC(=S)NC1c1ccc(OC)cc1` (configuration not stated), the CC50 at 16 h in data set [1] turned out to be 110 µM. Also, the IC50 in data set [2] turned out to be 4.5 µM.

Turning to `CCOC(=O)C1=C(C)NC(=S)NC1c1cc(Br)ccc1O` (configuration not stated), the CC50 at 16 h in data set [1] is 83.4 µM. In addition, in data set [2], the IC50 was 3.7 µM.

Turning to `CCOC(=O)C1=C(C)NC(=O)NC1c1ccc(O)c(OC)c1` (configuration not stated), the CC50 at 16 h in data set [1] is 141 µM. The IC50 in data set [2] worked out at 8.5 µM. For the same compound, the inhibition entry in the data set with SUP-T1 is “Active”.

Consider `CCOC(=O)C1=C(C)NC(=O)NC1c1ccccc1C` (configuration not stated), for which the cytotoxic concentration (CC50) at 16 h in data set [1] was 136 µM. The IC50 in data set [2] is 9.5 µM.

On to `CCOC(=O)C1=C(C)NC(=O)NC1c1ccc(OC)cc1` (configuration not stated), for which the CC50 at 16 h in data set [1] is 103 µM. Besides, the IC50 in data set [2] turned out to be 6.2 µM.

The term CC50 denotes the concentration that lowers cell viability or growth by half. A word on the IC50: it is the concentration that gives 50% inhibition. The inhibition is the drop in the measured response relative to a control, in per cent.
